{
  "source": "patent US11759495B2",
  "about": "“Upregulation of therapeutic T regulatory cells and suppression of suicidal ideations in response to inflammation by administration of nutraceutical compositions alone or combined with minocycline” (Therapeutic Solutions International, Inc., priority 2020, dated 2023)",
  "key": {"[1]": {"tested_on": "primary peritoneal macrophages", "conditions": "cited from earlier work"}, "[2]": {"tested_on": "LPS-challenged macrophages", "conditions": "0 to 50 μM, 6 h pre-incubation, LPS 24 h; cited from earlier work"}, "LPS-induced ARDS [3]": {"tested_on": "LPS-induced ARDS", "conditions": "cited from earlier work"}, "[4]": {"tested_on": "lipopolysaccharide-induced inflammatory reactions", "conditions": "cited from earlier work"}, "[5]": {"tested_on": "sepsis induction with live Escherichia coli / LPS O111:B4", "conditions": "cited from earlier work; for concentration of IL-1α: controls 1187.0±278.64"}, "iNOS": {"tested_on": "iNOS", "conditions": "cited from earlier work"}, "macrophage foam cells": {"tested_on": "macrophage foam cells", "conditions": "cited from earlier work"}, "[6]": {"tested_on": "myocardial ischemia and reperfusion", "conditions": "cited from earlier work"}, "ulcerative colitis (UC)": {"tested_on": "ulcerative colitis (UC)", "conditions": "cited from earlier work"}, "polymicrobial sepsis [7]": {"tested_on": "polymicrobial sepsis", "conditions": "10 mg/kg intraperitoneally at 1 and 6 h after CL2P and every 12 h; cited from earlier work"}, "polymicrobial sepsis [8]": {"tested_on": "polymicrobial sepsis", "conditions": "10 mg/kg intraperitoneally, 72 h after CL2P; cited from earlier work"}, "[9]": {"tested_on": "lethal endotoxemia / lethal sepsis", "conditions": "cited from earlier work"}, "LPS-induced ARDS [10]": {"tested_on": "LPS-induced ARDS", "conditions": "cited from earlier work", "remark": "listed apart in the source"}, "NK cell": {"tested_on": "NK cell", "assay": "Nanostilbene in cancer patients: NK cell activity and interferon gamma", "assay_type": "in vivo, human", "conditions": "administered in the form of nanostilbene", "from_the_text": "Additionally, pterostilbene has shown to inhibit inflammatory cytokines associated with ARDS."}, "[11]": {"tested_on": "inflammatory cytokines associated with ARDS", "conditions": "cited from earlier work"}, "[12]": {"conditions": "rat, in vivo; cited from earlier work"}, "[13]": {"conditions": "10 mg/kg intravenously then 10 mg/kg/h infusion"}},
  "note": "Where two headings read alike, the source gives them in different places.",
  "data": [
    {"compound": "C[S+]([O-])CCCCN=C=S", "note": "(stereo not shown) [sulforaphane, 1-isothiocyanato-4-(methylsulfinyl)-butane]", "values": [
      {"measurement": "HO-1 expression", "setting": "[1]; LPS-stimulated Nrf2 (+/+) macrophages", "value": "significantly augmented"},
      {"measurement": "LPS-stimulated mRNA expression, protein expression and production of TNF-alpha, IL-1beta, COX-2 and iNOS", "setting": "[1]; Nrf2 (+/+) macrophages, pretreatment", "value": "potently inhibited"},
      {"measurement": "anti-inflammatory effect", "setting": "[1]; Nrf2 (-/-) macrophages", "value": "attenuated"},
      {"measurement": "direct reaction with cytokines and NO", "setting": "[2]", "value": "neither directly reacted with cytokines, nor with NO"},
      {"measurement": "expression of NO and cytokines", "setting": "[2]", "value": "able to prevent"},
      {"measurement": "serum levels of interleukin-6 (IL-6)", "setting": "LPS-induced ARDS [3]; 50 mg/kg, ELISA", "value": "significantly decreased"},
      {"measurement": "serum levels of tumor necrosis factor-α (TNF-α)", "setting": "LPS-induced ARDS [3]; 50 mg/kg, ELISA", "value": "significantly decreased"},
      {"measurement": "lactate dehydrogenase (LDH) activity", "setting": "LPS-induced ARDS [3]; 50 mg/kg, LPS 5 mg/kg 3 days later", "value": "significantly decreased"},
      {"measurement": "cyclooxygenase-2 (COX-2) protein expression", "setting": "LPS-induced ARDS [3]; 50 mg/kg, western blot", "value": "significantly inhibited"},
      {"measurement": "matrix metalloproteinase-9 (MMP-9) protein expression", "setting": "LPS-induced ARDS [3]; 50 mg/kg, western blot", "value": "significantly inhibited"},
      {"measurement": "inducible nitric oxide synthase (iNOS) activity", "setting": "LPS-induced ARDS [3]; 50 mg/kg", "value": "significantly inhibited"},
      {"measurement": "nuclear factor-KB protein expression", "setting": "LPS-induced ARDS [3]; 50 mg/kg", "value": "significantly decreased"},
      {"measurement": "prostaglandin E2 (PGE2) production", "setting": "LPS-induced ARDS [3]; 50 mg/kg", "value": "significantly inhibited"},
      {"measurement": "wet-to-dry ratio of the lungs", "setting": "LPS-induced ARDS [3]; 50 mg/kg", "value": "significantly decreased"},
      {"measurement": "Nrf2/antioxidant response element (ARE) pathway", "setting": "LPS-induced ARDS [3]; pre-treatment", "value": "activated"}
    ]},
    {"compound": "CC1=CC(=O)C(C(C)C)=CC1=O", "note": "[thymoquinone]", "values": [
      {"measurement": "concentration of nitric oxide", "setting": "[4]", "value": "reduced significantly"},
      {"measurement": "lipopolysaccharide-induced inflammatory reactions", "setting": "[4]", "value": "suppressed effectively"},
      {"measurement": "concentration of IL-1α", "setting": "[5]; 0.75 mg/kg dose", "value": "310.8 ± 70.93", "unit": "pg/mL"},
      {"measurement": "IL-10 levels", "setting": "[5]; 0.75 mg/kg, controls 5505.2±333.96", "value": "2885.0 ± 553.98", "unit": "pg/mL"},
      {"measurement": "concentration of IL-1α", "setting": "[5]; 1 mg/kg group", "value": "428.3 ± 71.32", "unit": "pg/mL"},
      {"measurement": "levels of IL-2", "setting": "[5]; P=0.0851", "value": "relatively lower levels"},
      {"measurement": "levels of TNF-α", "setting": "[5]; P=0.1817", "value": "relatively lower levels"},
      {"measurement": "mortality reduction", "setting": "[5]; mice, thymoquinone intraperitoneal", "value": "80-90%"},
      {"measurement": "renal and hepatic biomarker profiles", "setting": "[5]; mouse, in vivo", "value": "improved"}
    ]},
    {"compound": "epigallocatechin-3-gallate [EGCG]", "values": [
      {"measurement": "NO production", "setting": "iNOS; cells cotreated with EGCG and LPS", "value": "Inhibition"},
      {"measurement": "130-kDa protein and 4.5-kb mRNA levels of iNOS", "setting": "iNOS", "value": "significantly reduced"},
      {"measurement": "disappearance of inhibitor kappaB from cytosolic fraction", "setting": "iNOS", "value": "blocked"},
      {"measurement": "activation of nuclear factor-kappaB", "setting": "iNOS; electrophoretic mobility shift assay", "value": "blocked"},
      {"measurement": "TNF-α-induced nuclear factor-κB (NF-κB) activity", "setting": "macrophage foam cells", "value": "inhibition"},
      {"measurement": "TNF-α-induced downregulation of ABCA1 and decrease in cholesterol efflux to apoA1", "setting": "macrophage foam cells; pretreatment", "value": "attenuated"},
      {"measurement": "myeloperoxidase activity", "setting": "[6]; [13]", "value": "reduced"},
      {"measurement": "myocardial damage", "setting": "[6]; [13]", "value": "reduced"},
      {"measurement": "nuclear factor-kB and activator protein-1 DNA binding", "setting": "[6]; rat, in vivo", "value": "reduction"},
      {"measurement": "plasma IL-6 levels", "setting": "[6]; rat, in vivo", "value": "decreased"},
      {"measurement": "plasma creatine phosphokinase levels", "setting": "[6]; rat, in vivo", "value": "decreased"},
      {"measurement": "colonic tissue erosion", "setting": "ulcerative colitis (UC); 50 and 100 mg/kg/day", "value": "attenuation"},
      {"measurement": "HIF-1α and STAT3 protein expression in the colon", "setting": "ulcerative colitis (UC); mouse, in vivo", "value": "decreasing"},
      {"measurement": "plasma levels of IL-10 and TGF-β1", "setting": "ulcerative colitis (UC); mouse, in vivo", "value": "increasing"},
      {"measurement": "release of IL-6 and IL-17", "setting": "ulcerative colitis (UC); plasma", "value": "reduce"},
      {"measurement": "hypotension (mean arterial blood pressure)", "setting": "polymicrobial sepsis [7]", "value": "significantly improved"},
      {"measurement": "survival", "setting": "polymicrobial sepsis [8]", "value": "significantly improved"},
      {"measurement": "rescue from lethal sepsis", "setting": "[9]; first dose 24 hours after cecal ligation and puncture", "value": "rescued"},
      {"measurement": "protection against lethal endotoxemia", "setting": "[9]; intraperitoneal", "value": "protected"},
      {"measurement": "LPS-induced ARDS", "setting": "LPS-induced ARDS [10]; 10 mg/kg ip 1 h before LPS 10 mg/kg ip", "value": "attenuated"},
      {"measurement": "expression of IκB-α", "setting": "LPS-induced ARDS [10]; 10 mg/kg ip", "value": "increased"},
      {"measurement": "expression of TLR-4, MyD88, TRIF, and p-p65 in the lung tissue", "setting": "LPS-induced ARDS [10]; 10 mg/kg ip", "value": "alleviated"},
      {"measurement": "expression of TNF-α, IL-1f and IL-6 in the lung, serum, and bronchoalveolar lavage fluid", "setting": "LPS-induced ARDS [10]; 10 mg/kg ip", "value": "significantly decreased"},
      {"measurement": "expression of p65", "setting": "LPS-induced ARDS [10]; 10 mg/kg ip", "value": "had no influence"}
    ]},
    {"compound": "trans-3,5-dimethoxy-4-hydroxystilbene [pterostilbene]", "values": [
      {"measurement": "NK cell activity", "setting": "NK cell", "value": "increased NK cell activity"},
      {"measurement": "interferon gamma production", "setting": "NK cell", "value": "increased"},
      {"measurement": "interleukin-1, interleukin-6, interleukin-8 and TNF-alpha", "setting": "[11]", "value": "inhibition"},
      {"measurement": "bioavailability", "setting": "[12]", "value": 80, "unit": "%"}
    ]}
  ]
}
